From ChEMBL document CHEMBL5360672, “Identification of Novel Dual-Target Estrogen Receptor α Degraders with Tubulin Inhibitory Activity for the Treatment of Endocrine-Resistant Breast Cancer” (J Med Chem, 2023)
pIC50: −log10 of the molar value.

Legend:
T47D = test: Antiproliferative activity against ERalpha positive human T47D cells assessed as inhibition of cell proliferation incubated for 72 hrs by CCK8 assay; assay type: functional, cell-based
[1] = Selectivity index, ratio of IC50 for cytotoxicity against human MCF-10A cells to IC50 for antiproliferative activity against human MCF7 cells; assay type: toxicity, cell-based; conditions: MCF-10A cells and MCF7 cells, read-out: Ratio IC50
Homo sapiens = species on record: Homo sapiens; test: Selectivity ratio of relative binding affinity for human ERalpha to relative binding affinity to human ERbeta
MCF7 = test: Antiproliferative activity against ERalpha positive human MCF7 cells assessed as inhibition of cell proliferation incubated for 72 hrs by CCK8 assay; assay type: functional, cell-based; conditions: MCF7, 72 h
[2] = Cytotoxicity against human MCF-10A cells assessed as inhibition of cell proliferation incubated for 72 hrs by CCK8 assay; assay type: toxicity, cell-based
[3] = molecular target: T1, Estrogen receptor (Homo sapiens) (UniProt P03372); test: Binding affinity to human ERalpha assessed as relative binding affinity incubated under vibration for 1 min followed by 2 hrs incubation under dark condition by fluorescence polarization assay relative to estradiol; conditions: time 121.0 min
T1 sequence (whole entry): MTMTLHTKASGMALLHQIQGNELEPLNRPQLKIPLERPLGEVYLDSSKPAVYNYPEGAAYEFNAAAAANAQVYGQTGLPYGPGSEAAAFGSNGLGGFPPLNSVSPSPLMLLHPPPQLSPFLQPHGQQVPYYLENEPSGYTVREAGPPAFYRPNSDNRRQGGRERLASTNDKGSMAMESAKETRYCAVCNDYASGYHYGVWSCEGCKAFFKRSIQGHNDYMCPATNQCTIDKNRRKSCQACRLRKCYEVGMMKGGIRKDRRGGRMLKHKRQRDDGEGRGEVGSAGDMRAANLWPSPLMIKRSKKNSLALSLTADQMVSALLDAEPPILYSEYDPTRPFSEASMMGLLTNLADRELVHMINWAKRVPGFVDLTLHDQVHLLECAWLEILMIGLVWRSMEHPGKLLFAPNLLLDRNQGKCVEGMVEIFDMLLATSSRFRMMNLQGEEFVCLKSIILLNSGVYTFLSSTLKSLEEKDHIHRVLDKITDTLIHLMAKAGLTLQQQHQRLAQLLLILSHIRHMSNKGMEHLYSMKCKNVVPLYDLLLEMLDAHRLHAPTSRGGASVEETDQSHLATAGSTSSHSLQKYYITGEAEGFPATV

[4] = molecular target: Estrogen receptor beta (Homo sapiens) (UniProt Q92731); test: Binding affinity to human ERbeta assessed as relative binding affinity incubated under vibration for 1 min followed by 2 hrs incubation under dark condition by fluorescence polarization assay relative to estradiol; conditions: time 121.0 min
Chain of Estrogen receptor beta (Homo sapiens) (Q92731 whole entry): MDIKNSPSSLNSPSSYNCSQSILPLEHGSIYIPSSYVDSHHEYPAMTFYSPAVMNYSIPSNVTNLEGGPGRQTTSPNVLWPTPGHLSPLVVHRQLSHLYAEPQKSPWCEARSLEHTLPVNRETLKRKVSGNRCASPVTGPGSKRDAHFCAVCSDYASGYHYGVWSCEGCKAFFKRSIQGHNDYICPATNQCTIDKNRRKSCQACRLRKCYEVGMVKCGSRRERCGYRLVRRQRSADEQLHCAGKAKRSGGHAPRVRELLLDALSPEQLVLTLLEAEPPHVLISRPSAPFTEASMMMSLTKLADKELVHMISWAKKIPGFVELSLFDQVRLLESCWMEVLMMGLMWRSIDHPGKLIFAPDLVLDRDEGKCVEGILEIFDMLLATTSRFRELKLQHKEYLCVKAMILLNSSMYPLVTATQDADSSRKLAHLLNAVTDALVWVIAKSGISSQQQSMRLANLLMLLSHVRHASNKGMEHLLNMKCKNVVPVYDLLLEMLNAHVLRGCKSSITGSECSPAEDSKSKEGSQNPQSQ

SMILES	pIC50 (T47D)	Selectivity ratio (Homo sapiens)	pIC50 (MCF7)	RBA [3] [%]	RBA [4] [%]	selectivity ratio [1]	IC50 at 72 h [2] [µM]
N#C[Se]CCCCCC(=O)Nc1ccc(C2=C(c3ccc(O)cc3)C3CC(S(=O)(=O)Oc4ccc(Cl)cc4)C2O3)cc1 (stereo unspecified)	5.45	0.23	5.88	0.6	2.64	8.94	11.8
Cc1ccccc1OS(=O)(=O)C1CC2OC1C(c1ccc(NC(=O)CCCCC[Se]C#N)cc1)=C2c1ccc(O)cc1 (stereo unspecified)	5.65	4.53	6.21	14.1	3.12	16.5	10.2
N#C[Se]CCCCCC(=O)Nc1ccc(C2=C(c3ccc(O)cc3)C3CC(S(=O)(=O)Oc4ccccc4C(F)(F)F)C2O3)cc1 (stereo unspecified)	5.75	10.6	6.46	23.1	5.79	36.9	12.9
N#C[Se]CCCCCC(=O)Nc1ccc(C2=C(c3ccc(O)cc3)C3CC(S(=O)(=O)Oc4ccccc4O)C2O3)cc1 (stereo unspecified)	5.45	26.9	6.49	30.9	1.15	23.4	7.49
N#C[Se]CCCCCC(=O)Nc1ccc(C2=C(c3ccc(O)cc3)C3CC(S(=O)(=O)Oc4cccc(O)c4)C2O3)cc1 (stereo unspecified)	< 4.51	15.6	5.89	14.2	0.91	> 46.5	> 60
N#C[Se]CCCC(=O)Nc1ccc(C2=C(c3ccc(O)cc3)C3CC(S(=O)(=O)Oc4ccccc4)C2O3)cc1 (stereo unspecified)	4.74	0.62	5.69	1.05	1.7	29.7	59.9
N#C[Se]CCCCCC(=O)Nc1ccc(C2=C(c3ccc(O)cc3)C3CC(S(=O)(=O)Oc4ccc5ccccc5c4)C2O3)cc1 (stereo unspecified)	< 4.51	19.6	5.52	4.51	0.23	7.52	22.6
N#C[Se]CCCCCC(=O)Nc1ccc(C2=C(c3ccc(O)cc3)C3CC(S(=O)(=O)Oc4ccccc4Cl)C2O3)cc1 (stereo unspecified)	5.59	5.4	6.31	8.21	1.52	20.7	10.1
COc1cc2c(c(OC)c1OC)-c1ccc(OC)c(=O)cc1[C@@H](NC(C)=O)CC2 [COLCHICINE]	9.55	–	9.00	–	–	–	–
COc1ccc(OS(=O)(=O)C2CC3OC2C(c2ccc(NC(=O)CCCCC[Se]C#N)cc2)=C3c2ccc(O)cc2)cc1 (stereo unspecified)	5.71	19.4	5.58	0.97	0.05	4.99	13.1
N#C[Se]CCCCCC(=O)Nc1ccc(C2=C(c3ccc(O)cc3)C3CC(S(=O)(=O)Oc4ccccc4)C2O3)cc1 (stereo unspecified)	5.49	6.05	5.91	4.72	0.78	> 49.2	> 60
N#C[Se]CCCCCC(=O)Nc1ccc(C2=C(c3ccc(O)cc3)C3CC(S(=O)(=O)Oc4cccc(Br)c4)C2O3)cc1 (stereo unspecified)	5.55	1.9	5.91	0.59	0.31	18.5	22.7

Further lines, with some results ahead:

pIC50 (T47D)	Selectivity ratio (Homo sapiens)	pIC50 (MCF7)	RBA [3] [%]	RBA [4] [%]	SMILES	selectivity ratio [1]	IC50 at 72 h [2] [µM]
< 4.51	0.57	6.24	0.17	0.3	N#C[Se]CCCCCC(=O)Nc1ccc(C2=C(c3ccc(O)cc3)C3CC(S(=O)(=O)Oc4cccc(C(F)(F)F)c4)C2O3)cc1 (stereo unspecified)	94.1	53.6
5.77	12.3	6.07	2.21	0.18	N#C[Se]CCCCCC(=O)Nc1ccc(C2=C(c3ccc(O)cc3)C3CC(S(=O)(=O)Oc4ccccc4Br)C2O3)cc1 (stereo unspecified)	8.78	7.55
5.69	6.25	6.11	3.31	0.53	N#C[Se]CCCCCC(=O)Nc1ccc(C2=C(c3ccc(O)cc3)C3CC(S(=O)(=O)Oc4cccc(F)c4)C2O3)cc1 (stereo unspecified)	22.4	17.5
5.49	34.7	5.60	12.1	0.35	COc1cccc(OS(=O)(=O)C2CC3OC2C(c2ccc(NC(=O)CCCCC[Se]C#N)cc2)=C3c2ccc(O)cc2)c1 (stereo unspecified)	7.99	19.9
5.74	12.4	6.31	16	1.29	COc1ccccc1OS(=O)(=O)C1CC2OC1C(c1ccc(NC(=O)CCCCC[Se]C#N)cc1)=C2c1ccc(O)cc1 (stereo unspecified)	15	7.37
5.77	1.72	5.61	15.5	9	N#C[Se]CCCCCC(=O)Nc1ccc(C2=C(c3ccc(O)cc3)C3CC(S(=O)(=O)Oc4cccc5ccccc45)C2O3)cc1 (stereo unspecified)	5.72	13.9
5.39	40.8	6.15	4.08	0.1	N#C[Se]CCCCCC(=O)Nc1ccc(C2=C(c3ccc(O)cc3)C3CC(S(=O)(=O)Oc4cccc(Cl)c4)C2O3)cc1 (stereo unspecified)	42.4	29.7
5.84	0.55	5.93	2.05	3.74	N#C[Se]CCCCCC(=O)Nc1ccc(C2=C(c3ccc(O)cc3)C3CC(S(=O)(=O)Oc4ccc(F)cc4)C2O3)cc1 (stereo unspecified)	9.75	11.5
< 4.51	0.34	5.77	0.71	2.06	N#C[Se]CCCCCCCC(=O)Nc1ccc(C2=C(c3ccc(O)cc3)C3CC(S(=O)(=O)Oc4ccccc4)C2O3)cc1 (stereo unspecified)	12	20.5
5.52	2.75	5.55	4.43	1.61	N#C[Se]CCCCCC(=O)Nc1ccc(C2=C(c3ccc(O)cc3)C3CC(S(=O)(=O)Oc4ccc(C(F)(F)F)cc4)C2O3)cc1 (stereo unspecified)	5.72	16.2
5.30	10.7	5.82	7.83	0.73	N#C[Se]CCCCCC(=O)Nc1ccc(C2=C(c3ccc(O)cc3)C3CC(S(=O)(=O)Oc4ccc(O)cc4)C2O3)cc1 (stereo unspecified)	6.94	10.4
4.61	2.38	5.56	0.57	0.24	N#C[Se]CC(=O)Nc1ccc(C2=C(c3ccc(O)cc3)C3CC(S(=O)(=O)Oc4ccccc4)C2O3)cc1 (stereo unspecified)	14	38.6
4.87	0.77	6.15	0.99	1.29	Cc1cccc(OS(=O)(=O)C2CC3OC2C(c2ccc(NC(=O)CCCCC[Se]C#N)cc2)=C3c2ccc(O)cc2)c1 (stereo unspecified)	42.5	30.2
5.50	1.26	5.56	3.31	2.63	Cc1ccc(OS(=O)(=O)C2CC3OC2C(c2ccc(NC(=O)CCCCC[Se]C#N)cc2)=C3c2ccc(O)cc2)cc1 (stereo unspecified)	15	41.1
5.13	5.77	5.29	9.98	1.73	N#C[Se]CCCCCCOc1ccc(OS(=O)(=O)C2CC3OC2C(c2ccc(O)cc2)=C3c2ccc(O)cc2)cc1 (stereo unspecified)	2.1	10.8
3.92	0.09	5.73	0.31	3.48	N#C[Se]CCCCCC(=O)Nc1ccc(C2=C(c3ccc(O)cc3)C3CC(S(=O)(=O)Oc4ccc(Br)cc4)C2O3)cc1 (stereo unspecified)	10.1	18.6
